Assay results reported in patent US20050234041A1, “Substituted 1-benzazepines and derivatives thereof” (priority 2001, published 2005).
Values after ≈ are worked out from the molar mass of the structure shown. Like-named read-outs stand apart in the source and are kept apart here.

Experiments:
Campylobacter jejuni = experiment: MIC, broth dilution method, Campylobacter jejuni; assay type: cell-based; conditions: for MIC: Campylobacter jejuni
Excerpt: (§1) Antibacterial activity can be determined by several standard methods well known by those skilled in the art, including disc diffusions methods, broth dilution minimal inhibitory concentration (MIC) methods, etc., including the detailed method outlined below and as defined by the National Committee of Clinical Laboratory Standards in the United States.
(§2) MIC, Broth Dilution Method
(§3) Cultures of bacteria are initially brought up from the freezer stocks onto chocolate agar plates by streaking a loop-full, then incubated for 18 hours at 35-37° C. in a 5% CO2 incubator.
(§4) Five to 10 colonies are picked from the chocolate agar plate for subculture to Brain-Heart Infusion (BHI) broth or Mueller Hinton broth or BHI containing 4% serum and incubated as described.
(§5) Evaluate the optical density of the organisms in the wells of a 96 well microtiter plate with and without the test compound. The optical density of the organisms in the presence of an active compound will be less than the optical density of the same organism untreated. The activity of the compounds is described as either negative or the lowest concentration inhibiting growth. The results are depicted in Table III, where +/− represents the least activity and ++++ represents the greatest activity. In Table IV, the results are depicted where MIC represents the lowest concentration of antibiotic that inhibits bacterial growth.

Helicobacter pylori = experiment: MIC, broth dilution method, Helicobacter pylori; assay type: cell-based; conditions: for MIC: Helicobacter pylori
Excerpt: as §1, §2, §3, §4, §5

[1] = Table IV, MIC, lowest concentration that inhibits bacterial growth, read-out: Antibacterial Activity (micrograms/ml) Campylobacter jejuni
[2] = Table IV, MIC, lowest concentration that inhibits bacterial growth, read-out: Antibacterial Activity (micrograms/ml) Helicobacter pylori
[3] = Table IV, MIC, lowest concentration that inhibits bacterial growth
[4] = Table V, read-out: MIC (μg/mL) C. jejuni
[5] = Table V, read-out: MIC (μg/mL) H. pylori

SMILES	MIC (Campylobacter jejuni; [4]) [µg/mL]	MIC (Helicobacter pylori; [5]) [µg/mL]	other results
CCOC(=O)C1CCc2ccc(OC)cc2N(CC)C1=O (racemic) [Example 4, 3(R,S)-Ethoxycarbonyl-1-ethyl-8-methoxy-2,3,4,5-tetrahydro-1H-1-benzazepine-2-one]	–	–	MIC (Campylobacter jejuni; [1]): 50 µg/mL (≈ 172 µM); MIC (Helicobacter pylori; [2]): 125 to 250 µg/mL (≈ 429 to 858 µM)
CCOC(=O)C1(CC)CCc2ccc(OC)cc2N(CC)C1=O (racemic) [Example 6, 1,3-Diethyl-3(R,S)-ethoxycarbonyl-8-methoxy-2,3,4,5-tetrahydro-1H-1-benzazepine-2-one]	–	–	MIC (Campylobacter jejuni; [1]): 50 µg/mL (≈ 157 µM); MIC (Helicobacter pylori; [2]): 12.5 µg/mL (≈ 39.1 µM)
CCN1C(=O)C(CC)(C(=O)O)CCc2ccc(OC)cc21 (racemic) [Example 7, 3(R,S)-Carboxyl-1,3-diethyl-8-methoxy-2,3,4,5-tetrahydro-1H-1-benzazepine-2-one]	–	–	MIC (Campylobacter jejuni; [1]): > 200 µg/mL; MIC (Helicobacter pylori; [2]): 100 µg/mL (≈ 343 µM)
CCN1C(=O)C(C(=O)OC(C)(C)C)CCc2cc(N3CCN(C(=O)OC(C)(C)C)CC3)c(OC)cc21 (racemic) [Example 14, 3(R,S)-tert-Butoxycarbonyl-7-[(4-tert-butoxycarbonyl-piperazin)-1-yl]-1-ethyl-8-methoxy-2,3,4,5-tetrahydro-1H-1-benzazepine-2-one]	–	–	Antibacterial Activity (micrograms/ml) Campylobacter jejuni (Campylobacter jejuni; [3]): >200 micrograms/ml; Antibacterial Activity (micrograms/ml) Helicobacter pylori (Helicobacter pylori; [3]): 50 micrograms/ml
COc1ccc2c(c1)N(Cc1cccc(F)c1)C(=O)C(C(=O)OC(C)(C)C)CC2 (racemic) [Example 25, 3(R,S)-tert-Butoxycarbonyl-1-(3-fluorobenzyl)-8-methoxy-2,3,4,5-tetrahydro-1H-1-benzazepine-2-one]	–	–	MIC (Campylobacter jejuni; [1]): > 200 µg/mL; MIC (Helicobacter pylori; [2]): 12.5 µg/mL (≈ 31.3 µM)
CCN1C(=O)C(C(=O)OC(C)(C)C)CCc2cc(N3CCN(C(=O)OCc4ccccc4)CC3)c(OC)cc21 (racemic) [Example 26, 7-[(4-benzyloxycarbonyl)-piperazin-1-yl]-3(R,S)-tert-butoxycarbonyl-1-ethyl-8-methoxy-2,3,4,5-tetrahydro-1H-1-benzazepine-2-one]	–	–	Antibacterial Activity (micrograms/ml) Campylobacter jejuni (Campylobacter jejuni; [3]): 125 micrograms/ml; Antibacterial Activity (micrograms/ml) Helicobacter pylori (Helicobacter pylori; [3]): 12.5 micrograms/ml
CCN1C(=O)C(Br)(C(=O)OC)CCc2cc(Br)c(OC)cc21 (racemic) [Example 27, 3,7-dibromo-1-ethyl-3(R,S)-methoxycarbonyl-8-methoxy-2,3,4,5-tetrahydro-1H-benzazepine-2-one]	–	–	MIC (Campylobacter jejuni; [1]): > 200 µg/mL; MIC (Helicobacter pylori; [2]): 12.5 µg/mL (≈ 28.7 µM)
CCN1C(=O)C(C(=O)OC)CCc2cc(Br)c(OC)cc21 (racemic) [Example 28, 7-bromo-1-ethyl-3(R,S)-methoxycarbonyl-8-methoxy-2,3,4,5-tetrahydro-1H-1-benzazepine-2-one]	–	–	MIC (Campylobacter jejuni; [1]): > 200 µg/mL; MIC (Helicobacter pylori; [2]): 25 µg/mL (≈ 70.2 µM)
CCN1C(=O)C(C(=O)OC(C)(C)C)CCc2ccc(O[Si](C)(C)C(C)(C)C)cc21 (racemic) [Example 179, 3(R,S)-tert-Butoxycarbonyl-8-tert-Butyldimethylsilyloxy-1-ethyl-2,3,4,5-tetrahydro-1H-1-benzazepine-2-one]	> 200	16 (≈ 38.1 µM)	–
CCOc1ccc2c(c1)N(CC)C(=O)C(C(=O)OC(C)(C)C)CC2 (racemic) [Example 180, 8-Ethoxy-3(R,S)-tert-butoxycarbonyl-1-ethyl-2,3,4,5-tetrahydro-1H-1-benzazepine-2-one]	> 200	32 (≈ 96 µM)	–
CC(C)(C)OC(=O)C1CCc2ccc(O)cc2N(C(=O)OC(C)(C)C)C1=O (racemic) [Example 183, 1,3(R,S)-Di(tert-butoxycarbonyl)-8-hydroxy-2,3,4,5-tetrahydro-1H-1-benzazepine-2-one]	125 (≈ 331 µM)	64 (≈ 170 µM)	–
COc1ccc2c(c1)N(Cc1cccc(F)c1)C(=O)C(C(=O)O)CC2 (racemic) [Example 184, 3(R,S)-carboxyl-1-(3-fluorobenzyl)-8-methoxy-2,3,4,5-tetrahydro-1H-1-benzazepine-2-one]	> 250	125 (≈ 364 µM)	–
COc1ccc2c(c1)N(CC#N)C(=O)C(C(=O)OC(C)(C)C)CC2 (racemic) [Example 196, 3(R,S)-tert-Butoxycarbonyl-1-cyanomethyl-8-methoxy-2,3,4,5-tetrahydro-1H-1-benzazepine-2-one]	30 (≈ 90.8 µM)	4 (≈ 12.1 µM)	–
COc1cc2c(cc1[N+](=O)[O-])CCC(C(=O)OC(C)(C)C)C(=O)N2 (racemic) [Example 198, 3(R,S)-tert-Butoxycarbonyl-8-methoxy-7-nitro-2,3,4,5-tetrahydro-1H-1-benzazepine-2-one]	60 (≈ 178 µM)	4 (≈ 11.9 µM)	–
COc1cc2c(cc1N)CCC(C(=O)OC(C)(C)C)C(=O)N2 (racemic) [Example 199, 7-Amino-3(R,S)-tert-butoxycarbonyl-8-methoxy-2,3,4,5-tetrahydro-1H-1-benzazepine-2-one]	> 250	125 (≈ 408 µM)	–
COc1ccc2c(c1)N(CC(=O)OC(C)(C)C)C(=O)C(C(=O)OC(C)(C)C)CC2 (racemic) [Example 200, 1-(tert-Butoxycarbonyl)methyl-3(R,S)-tert-butoxycarbonyl-8-methoxy-2,3,4,5-tetrahydro-1H-1-benzazepine-2-one]	> 250	15 (≈ 37 µM)	–
COc1ccc2c(c1)N(CC(N)=O)C(=O)C(C(=O)OC(C)(C)C)CC2 (racemic) [Example 201, 1-(Aminocarbonyl)methyl-3(R,S)-tert-butyloxycarbonyl-8-methoxy-2,3,4,5-tetrahydro-1H-1-benzazepine-2-one]	> 250	60 (≈ 172 µM)	–
CCOC(=O)NC(=O)N(C(=O)NC(=O)OCC)c1cc2c(cc1OC)NC(=O)C(C(=O)OC(C)(C)C)CC2 (racemic) [Example 204, 3(R,S)-tert-Butoxycarbonyl-7-di(ethoxycabonylaminocarbonyl)amino-8-methoxy-2,3,4,5-tetrahydro-1H-1-benzazepine-2-one]	–	–	MIC (μg/mL) C. jejuni (Campylobacter jejuni; Table V): >250, μg/mL; MIC (μg/mL) H. pylori (Helicobacter pylori; Table V): 60 µg/mL (≈ 112 µM)
COc1ccc2c(c1)N(CCN1CCOCC1)C(=O)C(C(=O)OC(C)(C)C)CC2 (racemic) [Example 213, 3(R,S)-tert-Butoxycarboxyl-8-methoxy-1-[2-(4-morpholinyl)]ethyl-2,3,4,5-tetrahydro-1H-1-benzazepine-2-one]	–	–	MIC (μg/mL) C. jejuni (Campylobacter jejuni; Table V): >250, μg/mL; MIC (μg/mL) H. pylori (Helicobacter pylori; Table V): 125 µg/mL (≈ 309 µM)
CCOC(=O)NC(=S)Nc1cc2c(cc1O)NC(=O)C(C(=O)OC(C)(C)C)CC2 (racemic) [Example 215, 3(R,S)-tert-Butoxycarbonyl-7-[(ethoxycarbonylamino)thiocarbonyl)]amino-8-hydroxyl-2,3,4,5-tetrahydro-H-1-benzazepine-2-one]	–	–	MIC (μg/mL) C. jejuni (Campylobacter jejuni; Table V): >250, μg/mL; MIC (μg/mL) H. pylori (Helicobacter pylori; Table V): 30 µg/mL (≈ 70.8 µM)
COc1ccc2c(c1)N(CCOC1CCCCO1)C(=O)C(C(=O)OC(C)(C)C)CC2 (racemic) [Example 221, 3(R,S)-tert-Butoxycarbonyl-8-methoxy-1-[2-(tetrahydro-2H-pyran-2-yl)oxyethyl]-2,3,4,5-tetrahydro-1H-1-benzazepine-2-one]	> 250	15 (≈ 35.8 µM)	–
COc1ccc2c(c1)N(CCO)C(=O)C(C(=O)OC(C)(C)C)CC2 (racemic) [Example 222, 3(R,S)-tert-Butoxycarbonyl-1-(2-hydroxy)ethyl-8-methoxy-2,3,4,5-tetrahydro-1H-1-benzazepine-2-one]	–	–	MIC (μg/mL) C. jejuni (Campylobacter jejuni; Table V): >250, μg/mL; MIC (μg/mL) H. pylori (Helicobacter pylori; Table V): 60 µg/mL (≈ 179 µM)
COc1ccc2c(c1)N(CCC1OCCO1)C(=O)C(C(=O)OC(C)(C)C)CC2 (racemic) [Example 223, 3(R,S)-tert-Butoxycarbonyl-8-methoxy-1-[2-(1,3-dioxolan-2-yl)ethyl]-2,3,4,5-tetrahydro-1H-1-benzazepine-2-one]	> 250	60 (≈ 153 µM)	–
CCN1C(=O)CCCc2ccc(OC)cc21 [Example 8, 1-Ethyl-8-methoxy-2,3,4,5-tetrahydro-1H-1-benzazepine-2-one]	–	–	MIC (Campylobacter jejuni; [1]): 50 µg/mL (≈ 228 µM); MIC (Helicobacter pylori; [2]): > 200 µg/mL
CCN1C(=O)C(C(=O)O)CCc2cc(N3CCN(c4cc5c(cc4OC)N(CC)C(=O)C(C(=O)O)CC5)CC3)c(OC)cc21 [Example 20, 1,4-Di-[(3(R,S)-carboxyl-1-ethyl-8-methoxy-2-oxo-2,3,4,5-tetrahydro-1H-1-benzazepine)-7-yl]-piperazine]	–	–	Antibacterial Activity (micrograms/ml) Campylobacter jejuni (Campylobacter jejuni; [3]): >200 micrograms/ml; Antibacterial Activity (micrograms/ml) Helicobacter pylori (Helicobacter pylori; [3]): 100 micrograms/ml
CCN1C(=O)CCCc2cc(N3CCN(C(=O)OC(C)(C)C)CC3)c(OC)cc21 [Example 21, 7-[(4-tert-butoxycarbonylpiperazin)-1-yl]-1-ethyl-8-methoxy-2,3,4,5-tetrahydro-1H-1-benzazepine-2-one]	–	–	Antibacterial Activity (micrograms/ml) Campylobacter jejuni (Campylobacter jejuni; [3]): >200 micrograms/ml; Antibacterial Activity (micrograms/ml) Helicobacter pylori (Helicobacter pylori; [3]): 12.5-25 micrograms/ml
O=C1CCCc2ccc([N+](=O)[O-])cc2N1 [Example 181, 8-Nitro-2,3,4,5-tetrahydro-1H-1-benzazepine-2-one]	125 (≈ 606 µM)	250 (≈ 1210 µM)	–
CCN1C(=O)CCCc2ccc([N+](=O)[O-])cc21 [Example 182, 8-Nitro-1-ethyl-2,3,4,5-tetrahydro-1H-1-benzazepine-2-one]	8 (≈ 34.2 µM)	16 (≈ 68.3 µM)	–
COc1ccc2c(c1)CCCC(=O)N2 [Example 185, 7-Methoxy-2,3,4,5-tetrahydro-1H-1-benzazepine-2-one]	32 (≈ 167 µM)	125 (≈ 654 µM)	–
COc1cccc2c1CCCC(=O)N2 [Example 186, 6-Methoxy-2,3,4,5-tetrahydro-1 H-1-benzazepine-2-one]	> 250	64 (≈ 335 µM)	–
